# How the values were obtained:
# hERG [1] = target: T1, hERG (Homo sapiens, UniProt Q12809); experiment: Inhibition of hERG at 1 uM relative to control; type: toxicity
# [2] = Effect on parathyroid hormone in overnight fasted Sprague-Dawley rat assessed as reduction in plasma PTH level at 10 mg/kg, po measured after 4 hrs of post treatment by sandwich ELISA analysis (reference value: 18%); type: functional; design: scale not given: the % may be the effect or the level left
# [3] = Effect on parathyroid hormone in overnight fasted Sprague-Dawley rat assessed as reduction in plasma PTH level at 10 mg/kg, po measured after 0.5 hrs of post treatment by sandwich ELISA analysis; type: functional; design: scale not given: the % may be the effect or the level left
# Rattus norvegicus [4] = experiment: Acute effect on parathyroid hormone in overnight fasted adenine diet-induced chronic kidney disease Wistar rat model assessed as reduction in plasma PTH level at 10 mg/kg, po measured after 2 hrs of post treatment by sandwich ELISA analysis; type: functional; design: scale not given: the % may be the effect or the level left
# [5] = Effect on parathyroid hormone in overnight fasted Sprague-Dawley rat assessed as reduction in plasma PTH level at 10 mg/kg, po measured after 6 hrs of post treatment by sandwich ELISA analysis (reference value: 33%); type: functional; design: scale not given: the % may be the effect or the level left
# [6] = Volume of distribution at steady state in Sprague-Dawley rat at 1 mg/kg, iv measured upto 24 hrs by LC-MS/MS analysis; type: ADME, organism-based; details: in vivo, read-out: Vdss
# Rattus norvegicus [7] = experiment: Acute effect on parathyroid hormone in overnight fasted adenine diet-induced chronic kidney disease Wistar rat model assessed as reduction in plasma PTH level at 10 mg/kg, po measured after 1 hrs of post treatment by sandwich ELISA analysis; type: functional; design: scale not given: the % may be the effect or the level left
# Rattus norvegicus [8] = experiment: Acute effect on parathyroid hormone in overnight fasted adenine diet-induced chronic kidney disease Wistar rat model assessed as reduction in plasma PTH level at 10 mg/kg, po measured after 4 hrs of post treatment by sandwich ELISA analysis; type: functional; design: scale not given: the % may be the effect or the level left
# [9] = Tmax in Sprague-Dawley rat at 10 mg/kg, po measured upto 24 hrs by LC-MS/MS analysis; type: ADME, organism-based; details: in vivo
# [10] = Cmax in Sprague-Dawley rat at 10 mg/kg, po measured upto 24 hrs by LC-MS/MS analysis; type: ADME, organism-based; design: time < 24 hrs, dose 10 mg/kg, route po; details: in vivo
# Cytochrome P450 2D6 = Cytochrome P450 2D6 (Homo sapiens, UniProt P10635); experiment: Inhibition of CYP2D6 in human liver microsomes preincubated for 5 mins followed by NADPH addition by LC-MS/MS analysis; type: ADME, Microsome
# [11] = Half life in Sprague-Dawley rat at 1 mg/kg, iv measured upto 24 hrs by LC-MS/MS analysis; type: ADME, organism-based; details: in vivo
# [12] = Effect on parathyroid hormone in overnight fasted Sprague-Dawley rat assessed as reduction in plasma PTH level at 10 mg/kg, po measured after 2 hrs of post treatment by sandwich ELISA analysis; type: functional; design: scale not given: the % may be the effect or the level left
# Rattus norvegicus [13] = experiment: Effect on parathyroid hormone in po dosed overnight fasted Sprague-Dawley rat assessed as reduction in plasma PTH level measured after 0.5 to 6 hrs of post treatment by sandwich ELISA analysis; type: functional, organism-based; details: dose 3-30 mg/kg, time 0.5-6 hrs
# [14] = Clearance in Sprague-Dawley rat at 1 mg/kg, iv measured upto 24 hrs by LC-MS/MS analysis; type: ADME, organism-based; details: in vivo
# Rattus norvegicus [15] = experiment: Subchronic effect on parathyroid hormone in overnight fasted adenine diet-induced chronic kidney disease Wistar rat model plasma assessed as reduction in plasma PTH level at 3 mg/kg, po qd measured after 27 days of post treatment by sandwich ELISA analysis; type: functional; design: scale not given: the % may be the effect or the level left; details: time 27 day
# [16] = AUClast in Sprague-Dawley rat at 10 mg/kg, po measured upto 24 hrs by LC-MS/MS analysis; type: ADME, organism-based; design: dose 10 mg/kg, time < 24 hrs, route po; details: in vivo
# [17] = Microsomal stability in human liver microsomes assessed as parent compound remaining at 1 uM measured upto 30 mins in presence of NADPH by LC-MS/MS analysis; type: ADME, Microsome; details: liver microsomes, read-out: Stability
# [18] = AUClast in Sprague-Dawley rat at 1 mg/kg, iv measured upto 24 hrs by LC-MS/MS analysis; type: ADME, organism-based; design: dose 1 mg/kg, time < 24 hrs, route iv; details: in vivo
# [19] = Microsomal stability in rat liver microsomes assessed as parent compound remaining at 1 uM measured upto 30 mins in presence of NADPH by LC-MS/MS analysis; type: ADME, Microsome; details: read-out: Stability
# [20] = target: T2, Extracellular calcium-sensing receptor (Homo sapiens, UniProt P41180); experiment: Agonist activity at human CaSR expresssed in HEK293 cells in presence of glucose by Fluo4NW dye based FLIPR assay; type: functional, cell-based; details: read-out: EC50
# T2 sequence (P41180 whole entry): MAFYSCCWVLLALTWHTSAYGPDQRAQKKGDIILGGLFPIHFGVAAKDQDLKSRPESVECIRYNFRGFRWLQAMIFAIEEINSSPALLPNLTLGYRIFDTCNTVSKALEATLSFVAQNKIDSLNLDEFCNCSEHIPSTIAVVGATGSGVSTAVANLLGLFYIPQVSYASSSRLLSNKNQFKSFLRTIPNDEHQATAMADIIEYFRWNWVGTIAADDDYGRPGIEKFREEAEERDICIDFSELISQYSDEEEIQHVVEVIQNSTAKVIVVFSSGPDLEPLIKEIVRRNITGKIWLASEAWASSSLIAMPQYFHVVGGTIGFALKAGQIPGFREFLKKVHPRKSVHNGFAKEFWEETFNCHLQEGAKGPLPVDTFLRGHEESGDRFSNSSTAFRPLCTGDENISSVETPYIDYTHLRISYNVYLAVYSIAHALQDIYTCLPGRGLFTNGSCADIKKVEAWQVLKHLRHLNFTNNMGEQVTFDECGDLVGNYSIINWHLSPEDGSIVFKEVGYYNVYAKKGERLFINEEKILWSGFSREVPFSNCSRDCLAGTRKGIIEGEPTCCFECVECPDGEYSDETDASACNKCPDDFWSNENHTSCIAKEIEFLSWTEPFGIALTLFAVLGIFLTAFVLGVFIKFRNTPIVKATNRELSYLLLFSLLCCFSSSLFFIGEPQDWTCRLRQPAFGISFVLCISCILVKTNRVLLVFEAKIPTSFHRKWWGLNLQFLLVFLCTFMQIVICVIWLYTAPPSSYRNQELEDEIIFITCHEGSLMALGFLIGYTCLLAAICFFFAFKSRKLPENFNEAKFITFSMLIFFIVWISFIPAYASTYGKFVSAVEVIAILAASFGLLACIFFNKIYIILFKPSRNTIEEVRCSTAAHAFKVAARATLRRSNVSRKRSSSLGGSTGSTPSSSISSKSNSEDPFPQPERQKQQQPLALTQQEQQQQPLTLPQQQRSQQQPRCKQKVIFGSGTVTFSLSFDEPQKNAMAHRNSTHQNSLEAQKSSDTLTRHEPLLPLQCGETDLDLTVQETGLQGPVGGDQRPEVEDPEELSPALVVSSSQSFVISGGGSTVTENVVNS
# hERG [21] = target: T1, hERG; experiment: Inhibition of hERG at 10 uM relative to control; type: toxicity
# [22] = Cmax in Sprague-Dawley rat at 1 mg/kg, iv measured upto 24 hrs by LC-MS/MS analysis; type: ADME, organism-based; design: dose 1 mg/kg, time < 24 hrs, route iv; details: in vivo
# Rattus norvegicus [23] = experiment: Chronic effect on parathyroid hormone in overnight fasted adenine diet-induced chronic kidney disease Wistar rat model plasma assessed as reduction in plasma PTH level at 10 mg/kg, po qd measured after 27 days of post treatment by sandwich ELISA analysis; type: functional; design: scale not given: the % may be the effect or the level left; details: time 27 day
# [24] = Oral bioavailability in Sprague-Dawley rat at 10 mg/kg measured upto 24 hrs by LC-MS/MS analysis; type: ADME, organism-based; details: in vivo
# T1 sequence (Q12809 whole entry): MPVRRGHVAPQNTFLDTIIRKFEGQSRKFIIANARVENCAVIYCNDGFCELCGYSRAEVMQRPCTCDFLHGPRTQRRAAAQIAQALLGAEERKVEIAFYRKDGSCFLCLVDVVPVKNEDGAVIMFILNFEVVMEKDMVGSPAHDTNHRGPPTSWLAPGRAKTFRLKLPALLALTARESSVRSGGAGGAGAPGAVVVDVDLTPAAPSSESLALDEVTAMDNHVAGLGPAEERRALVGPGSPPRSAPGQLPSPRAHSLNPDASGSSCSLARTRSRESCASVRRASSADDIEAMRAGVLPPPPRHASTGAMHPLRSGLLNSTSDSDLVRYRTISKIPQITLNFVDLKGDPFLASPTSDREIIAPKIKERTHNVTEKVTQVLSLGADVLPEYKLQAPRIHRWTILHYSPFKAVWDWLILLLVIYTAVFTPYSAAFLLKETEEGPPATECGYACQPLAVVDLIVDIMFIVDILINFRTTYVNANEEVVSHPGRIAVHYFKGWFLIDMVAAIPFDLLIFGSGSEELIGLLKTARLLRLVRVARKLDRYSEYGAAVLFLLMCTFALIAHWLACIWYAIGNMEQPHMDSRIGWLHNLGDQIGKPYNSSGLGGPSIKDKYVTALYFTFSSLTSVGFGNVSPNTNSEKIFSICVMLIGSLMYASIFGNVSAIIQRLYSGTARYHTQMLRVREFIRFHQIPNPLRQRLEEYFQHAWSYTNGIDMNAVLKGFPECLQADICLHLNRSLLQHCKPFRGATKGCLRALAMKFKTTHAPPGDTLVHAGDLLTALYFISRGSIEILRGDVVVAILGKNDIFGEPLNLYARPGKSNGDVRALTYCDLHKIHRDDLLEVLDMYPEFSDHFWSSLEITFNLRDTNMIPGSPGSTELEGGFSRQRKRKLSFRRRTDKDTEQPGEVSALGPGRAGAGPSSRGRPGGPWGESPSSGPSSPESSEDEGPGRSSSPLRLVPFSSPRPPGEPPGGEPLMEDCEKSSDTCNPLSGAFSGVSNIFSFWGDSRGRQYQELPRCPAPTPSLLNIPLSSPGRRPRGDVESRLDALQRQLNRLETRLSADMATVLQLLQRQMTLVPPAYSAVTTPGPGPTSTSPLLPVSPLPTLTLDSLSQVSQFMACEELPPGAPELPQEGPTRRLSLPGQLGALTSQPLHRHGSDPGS
# Sequence of Cytochrome P450 2D6 (P10635 whole entry): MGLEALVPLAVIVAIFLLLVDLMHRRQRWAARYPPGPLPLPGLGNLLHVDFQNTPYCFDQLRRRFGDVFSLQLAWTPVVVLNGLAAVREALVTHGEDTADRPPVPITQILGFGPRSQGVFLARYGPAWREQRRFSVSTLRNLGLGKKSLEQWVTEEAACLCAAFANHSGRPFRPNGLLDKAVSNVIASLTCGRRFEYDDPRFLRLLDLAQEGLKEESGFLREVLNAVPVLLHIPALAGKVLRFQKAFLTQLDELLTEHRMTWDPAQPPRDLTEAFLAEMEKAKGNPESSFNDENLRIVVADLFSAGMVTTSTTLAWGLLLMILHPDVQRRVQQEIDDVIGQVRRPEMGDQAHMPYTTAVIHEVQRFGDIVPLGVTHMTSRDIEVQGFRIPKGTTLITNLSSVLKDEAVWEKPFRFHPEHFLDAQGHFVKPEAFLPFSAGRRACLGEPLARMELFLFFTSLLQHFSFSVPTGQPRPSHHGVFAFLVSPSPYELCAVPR
compound,measurement,setting,value
C[C@@H](NCCCc1cccc(C(F)(F)F)c1)c1cccc2ccccc12 [CINACALCET],inhibition at 1 µM,hERG [1],19%
same,Activity,[2],74%
same,Activity,[3],92%
same,Activity,Rattus norvegicus [4],97%
same,Activity,[5],61%
same,Vd,[6],23 L/kg
same,Activity,Rattus norvegicus [7],92%
same,Activity,Rattus norvegicus [8],71%
same,Tmax,[9],0.5 h
same,Cmax,[10],270 nM
same,IC50,Cytochrome P450 2D6,> 50000 nM
same,half-life,[11],6 h
same,Activity,[12],99%
same,Activity,Rattus norvegicus [13],Dose-Dependent Effect
same,clearance,[14],44 mL/min/kg
same,Activity,Rattus norvegicus [15],37%
same,AUC(0-t) at 24 h,[16],1.9 µM·h
same,"remaining at 0.5 h, 1 µM",[17],65%
same,AUC(0-t) at 24 h,[18],1.02 µM·h
same,"remaining at 0.5 h, 1 µM",[19],4%
same,EC50,[20],4 nM
same,inhibition at 10 µM,hERG [21],97%
same,Cmax,[22],500 nM
same,Activity,Rattus norvegicus [23],58%
same,bioavailability,[24],19%

# From ChEMBL document CHEMBL5346964, “Discovery of LNP1892: A Precision Calcimimetic for the Treatment of Secondary Hyperparathyroidism” (J Med Chem, 2023)
